From US20070105837A1, “Novel derivatives of 4a,5,9,10,11,12-hexahydrobenzofuro[3a,3,2][2]-benzazepine, method for the production thereof and use thereof in the production of medicaments” (priority 2003, published 2007) come the findings set out here.

One test has as its target butyrylcholinesterase (Homo sapiens, UniProt P06276). Put plainly: biochemical.
In another test the target is acetylcholinesterase (Homo sapiens, UniProt P22303). The test can be described thus: biochemical.
Where [1] appears, read: read-out: Butyrylcholinesterase IC-50.
[2] abbreviates: read-out: Acetylcholinesterase IC-50.

Counter-ions that a name gives are not always drawn. Like-named read-outs stand apart in the source and are kept apart here.

butyrylcholinesterase, sequence (P06276 29-602): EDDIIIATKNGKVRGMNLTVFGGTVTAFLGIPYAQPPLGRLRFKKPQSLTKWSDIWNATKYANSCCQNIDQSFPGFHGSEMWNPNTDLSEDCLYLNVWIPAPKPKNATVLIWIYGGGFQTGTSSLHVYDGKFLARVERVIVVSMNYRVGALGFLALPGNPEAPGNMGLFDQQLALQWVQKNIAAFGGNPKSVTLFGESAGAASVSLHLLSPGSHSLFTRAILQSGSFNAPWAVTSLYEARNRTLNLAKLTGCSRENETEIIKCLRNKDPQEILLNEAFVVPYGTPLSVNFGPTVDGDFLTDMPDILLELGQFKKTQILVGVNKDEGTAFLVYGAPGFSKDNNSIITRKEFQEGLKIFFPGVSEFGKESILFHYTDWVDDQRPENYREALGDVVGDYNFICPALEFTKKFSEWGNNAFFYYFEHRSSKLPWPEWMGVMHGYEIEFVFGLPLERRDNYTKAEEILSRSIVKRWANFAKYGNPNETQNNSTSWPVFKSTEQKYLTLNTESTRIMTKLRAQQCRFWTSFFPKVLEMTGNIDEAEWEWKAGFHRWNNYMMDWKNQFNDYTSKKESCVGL
acetylcholinesterase, sequence (P22303 32-614, species assumed): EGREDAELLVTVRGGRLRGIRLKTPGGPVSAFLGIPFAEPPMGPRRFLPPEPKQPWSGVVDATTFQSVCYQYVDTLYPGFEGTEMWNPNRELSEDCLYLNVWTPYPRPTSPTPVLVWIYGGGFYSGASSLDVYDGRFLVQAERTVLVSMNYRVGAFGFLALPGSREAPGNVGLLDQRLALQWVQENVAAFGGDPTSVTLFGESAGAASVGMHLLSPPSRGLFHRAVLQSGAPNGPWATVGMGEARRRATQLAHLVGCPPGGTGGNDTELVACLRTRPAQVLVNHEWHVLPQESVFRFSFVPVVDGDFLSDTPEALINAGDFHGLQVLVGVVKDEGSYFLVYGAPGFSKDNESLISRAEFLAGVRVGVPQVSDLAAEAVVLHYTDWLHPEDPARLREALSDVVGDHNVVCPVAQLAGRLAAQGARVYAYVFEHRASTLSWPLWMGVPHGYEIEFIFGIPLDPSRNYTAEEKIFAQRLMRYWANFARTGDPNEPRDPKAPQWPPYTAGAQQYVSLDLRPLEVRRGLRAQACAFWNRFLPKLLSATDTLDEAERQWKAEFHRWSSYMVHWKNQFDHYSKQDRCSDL

As to `COc1cc(Br)c2c3c1O[C@H]1C[C@H](O)C=C[C@@]31CCNC2` [Example 1, (4aS,6S,8S)-1-bromo-4a,5,9,10,11,12-hexahydro-3-methoxy-6H-[1]benzofuro[3a,3,2-ef][2]benzazepin-6-ol.], the IC50 at butyrylcholinesterase and against acetylcholinesterase was > 100 µM each time.
As for `COc1cc(Br)c2c3c1O[C@H]1C[C@@H](O)C=C[C@@]31CCN(CCN1CCOCC1)C2` [Example 57, (4aS,6R,8aS)-1-bromo-4a,5,9,10,11,12-hexahydro-11-(2-(mopholin-4-yl)-ethyl)-3-methoxy-6H-[1]benzafuro[3a,3,2-ef][2]benzazepin-6-ol], the IC50 against butyrylcholinesterase is 2.7 µM; against acetylcholinesterase, > 100 µM.
For `COc1ccc2c3c1O[C@@H]1C[C@@H](O)C=C[C@]31CCN(/C(=N/C#N)SC)C2` [Example 27, Methyl (4aR,6R,8aR)-N11-cyano-6-hydroxy-3-methoxy-4a,5,9,10-tetrahydro-6H-[1]benzofuro [3a,3,2-ef][2]benzazepine-11(12H)-carboximidothioate], the IC50 on butyrylcholinesterase (setting [1]) and at acetylcholinesterase (setting [2]) was > 100 µM throughout.
As to `COc1ccc2c3c1O[C@@H]1C[C@@H](O)C=C[C@]31CCN(C(N)=O)C2` [Example 25, (4aR,6R,8aR)-4a,5,9,10-tetrahydro-6-hydroxy-3-methoxy-6H-[1]benzofuro[3a,3,2-ef][2]benzazepine-11(12H)-carboxamide], the IC50 at butyrylcholinesterase (setting [1]) and on acetylcholinesterase (setting [2]) was > 100 µM each time.
For the compound `COc1ccc2c3c1O[C@H]1C[C@H](O)C=C[C@@]31CCN(c1ncccn1)C2` [Example 16, (4aS,6S,8aS)-4a,5,9,10,11,12-hexahydro-3-methoxy-11-(2-pyrimidinyl)-6H-[1]benzofuro[3a,3,2-ef][2]benzazepin-6-ol], the IC50 on butyrylcholinesterase (setting [1]) and at acetylcholinesterase (setting [2]) was > 100 µM each time.
Regarding `CCN1CC[C@]23C=C[C@H](O)C[C@H]2Oc2c(OC)ccc(c23)C1` [Example 26, (4aR,6R,8aR)-4a,5,9,10,11,12-hexahydro-3-methoxy-11-ethyl-6H-[1]benzofuro[3a,3,2,ef][2]benzazepin-6-ol], the IC50 on butyrylcholinesterase and at acetylcholinesterase was > 100 µM each time.
`COc1ccc2c3c1O[C@H]1C=C(C)C=C[C@@]31CCN(C)C2` [Example 60, (4aS,8aS)-D5,6--4a,5,9,10,11,12-hexahydro-6,11-dimethyl-3-methoxy-6H-[1]benzofuro[3a,3,2-ef][2]benzazepine]: the results for the IC50 on butyrylcholinesterase (setting [1]) and at acetylcholinesterase (setting [2]) were 200 µM and 80 µM, respectively.
With `COc1cc(Br)c2c3c1OC1C[C@H](O)C=C[C@]31CCN(CCN1CCOCC1)C2` (single isomer, unassigned) [Example 58], the IC50 at butyrylcholinesterase (setting [1]) is 53 µM; on acetylcholinesterase (setting [2]) it was > 100 µM.
With `COc1ccc2c3c1O[C@H]1C[C@H](O)C=C[C@@]31CCN(C(=O)NC(C)C)C2` [Example 14], the IC50 on butyrylcholinesterase (setting [1]) and at acetylcholinesterase (setting [2]) was > 100 µM each time.
On to `C#CCN1CC[C@@]23C=C[C@@H](O)C[C@@H]2Oc2c(OC)ccc(c23)C1` [Example 18, (4aS,6S,8aS)-4a,5,9,10,11,12-hexahydro-3-methoxy-11-propargyl-6H-[1]benzofuro[3a,3,2-ef][2]benzazepin-6-ol], for which the IC50 on butyrylcholinesterase (setting [1]) and on acetylcholinesterase (setting [2]) was > 100 µM in each case.
With `COc1ccc2c3c1O[C@@H]1C[C@H](O)C=C[C@]31CCN(CCCO)C2` [Example 29, (4aR,6S,8aR)-11-(3-hydroxypropyl)-3-methoxy-5,6,9,10,11,12-hexahydro-4aH-[1]benzofuro[3a,3,2-ef][2]benzazepin-6-ol], the IC50 on butyrylcholinesterase (setting [1]) and on acetylcholinesterase (setting [2]) was > 100 µM each time.
Consider `COc1cc(Br)c2c3c1O[C@@H]1C[C@@H](O)C=C[C@]31CCNC2` [Example 3, (4aR,6R,8R)-1-bromo-4a,5,9,10,11,12-hexahydro-3-methoxy-6H-[1]benzofuro[3a,3,2-ef][2]benzazepin-6-ol.], for which the IC50 on butyrylcholinesterase and against acetylcholinesterase was > 100 µM each time.
With `COC(=O)CCC(=O)N1CC[C@]23C=C[C@@H](O)C[C@H]2Oc2c(OC)cc(Br)c(c23)C1` [Example 9, Methyl-4-((4aR,6S,8aR)-1-bromo-4a,5,9,10,11,12-hexahydro-6-hydroxy-3-methoxy-6H-benzofuro[3a,3,2-ef][2]benzazepine-11-yl)gamma-oxobutyrate], the IC50 on butyrylcholinesterase (setting [1]) and at acetylcholinesterase (setting [2]) was > 100 µM each time.
For `COc1ccc2c3c1O[C@H]1C[C@H](O)C=C[C@@]31CCN(C(N)=O)C2` [Example 21, (4aS,6S,8aS)-4a,5,9,10-tetrahydro-6-hydroxy-3-methoxy-6H-[1]benzofuro[3a,3,2-ef][2]benzazepine-11(12H)-carboxamide], the IC50 on butyrylcholinesterase (setting [1]) and at acetylcholinesterase (setting [2]) was > 100 µM throughout.
Consider `COc1ccc2c3c1O[C@H]1C[C@@H](O)C=C[C@@]31CCN(CCCCN1CCCCC1)C2` [Example 50], for which the IC50 against butyrylcholinesterase turned out to be 0.61 µM; on acetylcholinesterase it was 0.036 µM.
As for `CNC(=S)N1CC[C@]23C=C[C@@H](O)C[C@H]2Oc2c(OC)cc(Br)c(c23)C1` [Example 11, (4aR,6S,8aR)-1-bromo-4a,5,9,10-tetrahydro-6-hydroxy-3-methoxy-6H-[1]benzofuro-[3a,3,2-et][2]benzazepine-11(12H)-thiocarbonic acid methylamide], the IC50 at butyrylcholinesterase (setting [1]) and on acetylcholinesterase (setting [2]) was > 100 µM each time.
With `COc1cc(Br)c2c3c1O[C@@H]1C[C@H](O)C=C[C@]31CCN(CCCN)C2` [Example 10, (4aR,6S,8aR)-11-(4-aminopropyl)-3-methoxy-5,6,9,10,11,12-hexahydro-4aH-[1]benzofuro[3a,3,2-et][2]benzazepin-6-ol, methane sulfonate], the IC50 on butyrylcholinesterase (setting [1]) and on acetylcholinesterase (setting [2]) was > 100 µM throughout.
For `C=CCNC(=S)N1CC[C@@]23C=C[C@@H](O)C[C@@H]2Oc2c(OC)ccc(c23)C1` [Example 20, (4aS,6S,8aS)-6-hydroxy-3-methoxy-4a,5,9,10-tetrahydro-6H-[1]benzofuro[3a,3,2-ef][2]benzazepine-11(12H)-thiocarbonic acid allylamide], the IC50 on butyrylcholinesterase (setting [1]) and at acetylcholinesterase (setting [2]) was > 100 µM each time.
Consider `COc1ccc2c3c1O[C@H]1C[C@@H](O)C=C[C@@]31CCN(CC(N)=O)C2` [Example 34, 2-((4aS,6R,8aS)-6-hydroxy-3-methoxy-5,6,9,10-tetrahydro-4aH-[1]benzofuro[3a,3,2-ef][2]benzazepine-11(12H)-yl)acetamide], for which the IC50 at butyrylcholinesterase (setting [1]) is 78 µM; on acetylcholinesterase (setting [2]), > 100 µM.
Consider `COc1ccc2c3c1O[C@H]1C[C@@H](O)C=C[C@@]31CCN(c1ncccn1)C2` [Example 37, (4aS,6R,8aS)-3-methoxy-11-(2-pyrimidinyl)-5,6,9,10,11,12-hexahydro-4aH-[1]benzofuro [3a,3,2-ef][2]benzazepin-6-ol], for which the IC50 at butyrylcholinesterase (setting [1]) and at acetylcholinesterase (setting [2]) was > 100 µM each time.
With `CNC(=S)N1CC[C@]23C=C[C@H](O)C[C@H]2Oc2c(OC)cc(Br)c(c23)C1` [Example 4, (4aR,6R,8aR)-1-brorno-4a,5,9,10-tetrahydro-6-hydroxy-3-methoxy-6H-[1]benzofuro-[3a,3,2-ef][2]benzazepine-11(12H)-thiocarbonic acid methylamide], the IC50 on butyrylcholinesterase (setting [1]) and on acetylcholinesterase (setting [2]) was > 100 µM in each case.
Take `COc1ccc2c3c1O[C@H]1C[C@@H](O)C=C[C@@]31CCN(C(=O)CCC(=O)O)C2` [Example 39, ((4aS,6R,8aS)-4a,5,9,10,11,12-hexahydro-6-hydroxy-3-methoxy-6H-benzofuro[3a,3,2-ef][2]benzazepine-11--yl)gamma-oxobutyric acid]: the IC50 at butyrylcholinesterase (setting [1]) and at acetylcholinesterase (setting [2]) was > 100 µM throughout.
With `COc1ccc2c3c1O[C@H]1C[C@@H](O)C=C[C@@]31CCN(C(N)=S)C2` (stereo in doubt) [Example 30, (4aS,6R,8aS)-6-hydroxy-3-methoxy-5,6,9,10-tetrahydro-4aH-[1]benzofuro[3a,3,2-ef][2]benzazepine-11(12H)-carbothioamide], the IC50 on butyrylcholinesterase (setting [1]) and on acetylcholinesterase (setting [2]) was > 100 µM throughout.
As to `COc1ccc2c3c1O[C@@H]1C=C(c4ccccc4)C=C[C@@]31CCN(C)C2` [Example 59, (4aS,8aS)-D5,6-4a,5,9,10,11,12-hexahydro-11-methyl-3-methoxy-6-phenyl-6H-[1]benzofuro[3a,3,2-ef][2]benzazepine], the IC50 on butyrylcholinesterase (setting [1]) amounted to 25 µM; on acetylcholinesterase (setting [2]), 52 µM.
Consider `COc1ccc2c3c1O[C@@H]1C[C@@H](N)C=C[C@]31CCN(C)C2` [Example 28, (4aR,6R,8aR)-4a,5,9,10,11,12-hexahydro-3-methoxy-11-methyl-6H-benzofuro[3a,3,2-ef][2]benzazepin-6-amine, dihydrochloride], for which the IC50 on butyrylcholinesterase (setting [1]) and at acetylcholinesterase (setting [2]) was > 100 µM each time.
`COc1ccc2c3c1O[C@H]1C[C@@H](O)C=C[C@@]31CCN(c1nc(Cl)nc(Cl)n1)C2` [Example 42, (4aS,6R,8aS)-11-(4,6-dichloro-1,3,5,-triazin-2-yl)-3-methoxy-5,6,9,10,11,12-hexahydro-4aH-[1]benzofuro[3a,3,2-ef][2]benzazepin-6-ol]: the IC50 at butyrylcholinesterase (setting [1]) and on acetylcholinesterase (setting [2]) was > 100 µM in each case.
